Each structure is given as a SMILES string. “Also recorded” adds a separate entry of the source. Where two headings read alike, the source gives them in different places.

One data set deals with fibrocystic disease. To be noted: human, in vivo; cited from earlier work.
The subject of data set [1] is breast tissue from a female rat on an iodine deficient diet. Briefly: Carcinogen added to iodine deficient rat model (FIG. 6). Format: in vivo. To be noted: iodine deficient diet (FIG. 6). The source says: This finding is supportive of the inventors' contention that fibrocystic disease enhances the risk of breast cancer causing sensitization of the breast tissue to various stimuli, including carcinogens. This sensitization process may explain the increased incidence of breast cancer in women in areas of deficient iodine intake, reported by Moosa et al. in "Thyroid Status and Breast Cancer", Royal College of Surgeons, England, 53, 1975.

The subject of a further data set is breast estrogen receptor. Briefly: Breast estrogen receptor activity and iodine. On the set-up: species or system rat. The source says:
The biochemical pathway seems to be an intracellular attraction by iodine for estrogen receptors. […] Thus, cell metabolism is altered when there is "inadequate" iodine present.
A characteristic of breast cancer is the change in response to estrogen and estrogen receptor variability.

Data set [2] concerns DMBA-induced mammary gland neoplasia. Briefly: Example 4: Iodine treatment of induced breast tumors in rats. Format: in vivo, rat. The source says:
DMBA, a carcinogen, causes mammary gland neoplasia in rats. If these tumors contain breast peroxidase, tney respond to iodine and estrogen treatment. However, as the tumors become less responsive to iodine (hormone independent), breast peroxidase is found to be lacking.

The next data set relates to breast cancer. Description: Example 5: Incidence of breast cancer in women treated with elemental iodine. Type of data set: in vivo, human (women). To be noted: comparison with published series. The source says: The incidence of breast cancer in women treated with elemental iodine was compared with other published results, namely the results as published by the Ontario Cancer Research, and results published by Spratt.

Data set [3] relates to DMBA-induced mammary tumors. Description: Dimethylbenzanthracene studies: mean tumor volume in DMBA treated rats. Type of data set: in vivo, Sprague-Dawley virgin female rats. To be noted: for Mean Tumor Volume, Exp. / Mean Tumor Volume, Week 10 / Mean Tumor Volume, Week 12 / Mean Tumor Volume, Week 14 / Mean Tumor Volume, Week 16 / Mean Tumor Volume, Week 18 / Mean Tumor Volume, Week 20 / Mean Tumor Volume, Week 22: DMBA treated rats, in mm³ (unit assumed). Here is the method:
After adequate orientation of 48 hours, 80 Sprague-Dawley virgin female rats (A.A.I., PA) of 100-124 grams and approximately 37 days old, were divided randomly into eight groups each containing 10 rats. The animals were identified according to their phase, group, and rat numbers. The eight groups were labelled as Groups, IA1, IA2, IB1, IB2, IIA1, IIA2, IIB1, and IIB2. Each rat was weighed and marked for identification. Ear identification were as follows:
Group I was initially fed a normal diet and provided with double distilled drinking water (Ionics and IWT). Group II was initially fed a Remington iodine-deficient diet (Teklad, WI) during which they received double distilled drinking water.
At the end of fourteen days, and at 50-56 days old, groups I and II were divided into groups A and B. Groups IA and IIA were treated with 15 mg 7,12 Dimethylbenzanthracene (Eastman Kodak, NY) dissolved in 1 ml sesame oil by gavage. Groups IB and IIB were given a sham feeding of 1 ml of sesame oil at this time also. Only 10 rats a day were given this treatment. For the first twelve hours after treatment, the rats were housed in the fume hood and then taken to the Animal House where they were placed in the same room as groups IB and IIB. The rats in groups IA and IIA continued to be fed a normal diet and iodine-deficient diet, respectively. Groups IB and IIB also continued to receive their respective diets.
The following phases received iodine replacement therapy at these times:
Phase 1--at time of initial feeding of Remington diet
Phase 2--at time of DMBA pulse
Phase 3--at 10 days after DMBA treatment
Groups IA1, IB1, IIA1, and IIB1 received 2.67 ml/1000 ml dilution of a 0.3 mg/ml "mother" iodine concentrate for the rest of the experiment. The technique for making the iodine solution was as follows:
4) A second container was used to measure 2.67 ml of concentrate to 1000 ml DD H2 O. This dilution was then used as drinking water for the animals.
This daily dosage corresponds to the rats receiving 0.07-0.09 mg per kilogram body weight. The other groups continued to receive double distilled drinking water. Thus, the groups were arranged in the following order:
Palpations of the breasts were performed twice a week for the first 30 days after pulse DMBA was administered. The masses, if any, were drawn, measured by caliper, described as to consistency and freedom of motion, and all observations were recorded. After 30 days, the above observations were taken (including framing of tumor if larger than 5 mm) every 2 days and recorded.
Group 1, which was initially fed a normal diet, and Group 2 which was initially fed a Remington iodine deficient diet. Within the two groups are four subgroups, phases 1, 2 and 3, and a control. Phase 1 received iodine replacement therapy at the time of the initial feeding of either the Remington diet or the normal diet. Phase 2 received iodine replacement therapy at the time of DMBA treatment. Phase 3 received iodine replacement therapy 10 days after DMBA treatment.
*Volumes were calculated using the formula 4/3 ((L + W) .div. 2)
All measurements were recorded in centimeters designating the greatest

A further data set deals with endometriosis. Briefly: Example 6: Treatment of endometriosis with iodine. Format: in vivo, human. The source says:
An effective dose of elemental iodinte (I2) to cause such a subsidence of nodularity is about 1 to 20 milligrams per day. A daily dosage of elemental iodine for the treatment of endometriosis of about 3 milligrams to about 6 milligrams is also useful. The daily dosage can be administered in an aqueous solution containing about 0.30 milligrams of elemental iodine per millilitre of solution.
Two patients, both with a diagnosis of endometriosis and both treated with birth control pills previously with little result, were treated with diatomic iodine for 10 and 18 months, respectively.

Data set [4] concerns breast tissue from a female rat on an iodine deficient diet. Description: Iodine replacement therapy in iodine deficient rats, morphology of breast tissue. Format: in vivo. The source says: Studies on rats have included iodine replacement therapy in animals made iodine deficient by a Remington iodine-free diet.
The first iodine product used in the reversal experiment was sodium iodide.
FIG. 1 is a photomicrograph of the breast tissue of a human.
Biological Trace Element Research, Volume 5, 1983, 399-412. The material disclosed in these articles is incorporated herein by reference.
This deficiency can be obtained either through the use of an iodine deficient diet and/or through perchlorate treatment.

The next data set relates to dysplastic mastodynia. To be noted: women with dysplastic mastodynia; cited from earlier work.
The test system of data set [5] is breast tissue from a female rat on an iodine deficient diet. To be noted: Remington iodine-free diet; iodide salts in food, normal and excessive levels; cited from earlier work.
The mark [6] stands for this setting: Group I, Normal Diet, Iodine Phase I.
Where [7] appears, read: Group I, Normal Diet, Iodine Phase II.
Setting [8] is: Group I, Normal Diet, Iodine Phase III.
Where [9] appears, read: Group II, ID (iodine-deficient) Diet, Iodine Phase I.
The mark [10] stands for this setting: Group II, ID (iodine-deficient) Diet, Iodine Phase II.
The mark [11] stands for this setting: Group II, ID (iodine-deficient) Diet, Iodine Phase III.

In the case of `C#C[C@]1(O)CC[C@H]2[C@@H]3CCC4=Cc5oncc5C[C@]4(C)[C@H]3CC[C@@]21C` [danazol], the “side effects in treatment of mammary dysplasia” value in the data set with fibrocystic disease was “massive side effects”.
Turning to `Cc1c2ccccc2c(C)c2c1ccc1ccccc12` [dimethyl benzanthracene, 7,12 Dimethylbenzanthracene], the “progression of fibrocystic dysplasia” value in [1] is “progression from the benign state of fibrocystic dysplasia to overt malignancy”.
For `II` [elemental iodine, diatomic iodine], the “breast estrogen receptor activities after iodine replacement” value in the data set on breast estrogen receptor (iodine deficiency) is recorded as “disappears upon iodine replacement”. Moreover, the “role in estrogen receptor function” value in the data set on breast estrogen receptor (rats) is given as “necessary for normal estrogen receptor function in rats”. Also, the tumor response result in [2] (about 0.5 mg per 100 gm body weight, orally or intraperitoneally, preliminary) is “more response to both diatomic iodine and estrogen”. For the same compound, in the data set on breast cancer, the “incidence of breast cancer versus women not so treated” value is listed as “less than the incidence of breast cancer in women who had not been so treated”. Besides, in data set [3] (setting [6]), the “Mean Tumor Volume, Exp.” value stood at 320.524; the “Mean Tumor Volume, Week 10” value worked out at 15.191; the “Mean Tumor Volume, Week 12” value is reported as 53.565; the “Mean Tumor Volume, Week 14” value worked out at 67.739. Moreover, in data set [3] (setting [6]), the “Mean Tumor Volume, Week 16” value worked out at 97.979; the “Mean Tumor Volume, Week 18” value is listed as 136.405; the “Mean Tumor Volume, Week 20” value is listed as 155.904; the “Mean Tumor Volume, Week 22” value was 214.962. In addition, in data set [3] (setting [7]), the “Mean Tumor Volume, Exp.” value is 534.001; the “Mean Tumor Volume, Week 10” value is 7.603; the “Mean Tumor Volume, Week 12” value was 57.853; the “Mean Tumor Volume, Week 14” value was determined as 106.887. For the same compound, in data set [3] (setting [7]), the “Mean Tumor Volume, Week 16” value was found to be 140.751; the “Mean Tumor Volume, Week 18” value turned out to be 216.033; the “Mean Tumor Volume, Week 20” value was 247.025; the “Mean Tumor Volume, Week 22” value is given as 320.468. In addition, in data set [3] (setting [8]), the “Mean Tumor Volume, Exp.” value amounted to 392.61; the “Mean Tumor Volume, Week 10” value amounted to 6.686; the “Mean Tumor Volume, Week 12” value stood at 24.079; the “Mean Tumor Volume, Week 14” value worked out at 75.421. In addition, in data set [3] (setting [8]), the “Mean Tumor Volume, Week 16” value is reported as 90.319; the “Mean Tumor Volume, Week 18” value amounted to 127.529; the “Mean Tumor Volume, Week 20” value is 184.717; the “Mean Tumor Volume, Week 22” value was 319.229. Further, in [3] (setting [9]), the “Mean Tumor Volume, Exp.” value is listed as 337.516; the “Mean Tumor Volume, Week 10” value was 4.048; the “Mean Tumor Volume, Week 12” value is given as 23.367; the “Mean Tumor Volume, Week 14” value is on record as 65.244. In data set [3] (setting [9]), the “Mean Tumor Volume, Week 16” value was determined as 119.156; the “Mean Tumor Volume, Week 18” value came to 155.189; the “Mean Tumor Volume, Week 20” value came out at 174.49; the “Mean Tumor Volume, Week 22” value is listed as 238.883. In [3] (setting [10]), the “Mean Tumor Volume, Exp.” value is reported as 613.044; the “Mean Tumor Volume, Week 10” value turned out to be 0.216; the “Mean Tumor Volume, Week 12” value turned out to be 54.934; the “Mean Tumor Volume, Week 14” value is listed as 111.962. In data set [3] (setting [10]), the “Mean Tumor Volume, Week 16” value is listed as 168.475; the “Mean Tumor Volume, Week 18” value is 269.008; the “Mean Tumor Volume, Week 20” value stood at 401.774; the “Mean Tumor Volume, Week 22” value was 519.122. Besides, in data set [3] (setting [11]), the “Mean Tumor Volume, Exp.” value was 500.435; the “Mean Tumor Volume, Week 10” value worked out at 5.816; the “Mean Tumor Volume, Week 12” value is given as 36.68; the “Mean Tumor Volume, Week 14” value came out at 81.81. Further, in data set [3] (setting [11]), the “Mean Tumor Volume, Week 16” value came to 177.888; the “Mean Tumor Volume, Week 18” value worked out at 203.824; the “Mean Tumor Volume, Week 20” value came out at 356.807; the “Mean Tumor Volume, Week 22” value came out at 393.328. For the same compound, the “mean tumor volume, in words” value in data set [3] (pretreatment before DMBA, versus nontreated controls) is reported as “reduction of mean tumor volume as compared to the nontreated controls; also recorded: reduced the mean tumor volume in the DMBA treated rats”. The “nodularity of pelvic peritoneum” value in the data set with endometriosis (about 1 to 20 milligrams per day) is “subsidence of the nodularity of the patient's pelvic peritoneum”. In addition, in the data set with endometriosis (no other medication during trial therapy), the “overall response to iodine treatment, series of patients” value is recorded as “This series of patients has responded”. Further, in the data set with endometriosis (third patient), the “effect of stopping medication” value is “asymptomatic for two cycles, and then their pain returned”; the “pelvic pain and nodularity on treatment” value is “within two cycles, with complete relief of pelvic pain and improvement in the pelvic nodularity on rectal examination”. In addition, the “cyclic lower abdominal pain” value in the data set on endometriosis (three patients treated for fibrocystic breast dysplasia) is on record as “coincident dramatic decrease in their cyclic lower abdominal pain”. Further, in the data set with endometriosis (two patients), the “effect of restarting medication” value is “The subjective symptoms and physical findings again improved within one cycle”; the “effect of stopping medication” value is listed as “within one cycle, they had severe pain again, with increasing nodularity of the pelvic peritoneum on rectal examination”. Besides, the pain on treatment entry with endometriosis (two patients, 10 and 18 months) was “complete amelioration of their pain within one cycle of starting the medication”.
As to `[O-][Cl+3]([O-])([O-])O` [perchlorate, reference compound], the “effect on tumorigenesis and iodide therapy” value in [2] (peroxidase-blocking agent) was “increases the tumorigenesis and the effectiveness of iodide therapy”.
On to `[I-].[K+]` [potassium iodide, reference compound], for which the “reversal of pathological changes / tissue morphology of rat breast after iodine replacement” value in [4] was “only minimal success”. Besides, in the data set on dysplastic mastodynia, the improvement rate was 71%.
As to `[I-].[Na+]` [sodium iodide, reference compound], the “reversal of pathological changes / tissue morphology of rat breast after iodine replacement” value in data set [4] was “reversal of the pathological changes to a degree with the partial subsidence of cyst formation, epithelial hyperplasia and fibrosis. The interacinar fibrosis remained”; in data set [4] (listed as sodium iodide (NaI)) it was “only minimal success”; in data set [4] (listed as sodium iodine) it was “The epithelial hyperplasia regressed and the cystic spaces disappeared, but the fibrous tissue remained”. In addition, the “breast dysplasia after iodine replacement” value in data set [5] is “the breast dysplasia appeared to abate with a partial subsidence of epithelial hyperplasia and a loss of cystic spaces but with a continuation of the fibrosis of the syndrome”.

The values are drawn from patent publication US6019970A, “Treatment of iodine deficiency diseases” (priority 1997, dated 2000).
